# Reference: ChEMBL document CHEMBL5321278, “Discovery of Aminoratjadone Derivatives as Potent Noncovalent CRM1 Inhibitors” (J Med Chem, 2023)
# Active and inactive are the calls of the source. The calls are words filed in the database; no cut-off is given here. Where a SMILES comes first, the peptide text is derived from it. The star is where a group is joined. Cbz = O=C(OCc1ccccc1)*
# Assays:
# [1] = molecular target: T1, Exportin-1 (Homo sapiens, UniProt O14980); experiment: Binding affinity to CRM1 (unknown origin) assessed as dissociation constant by microscale thermophoresis assay
# [2] = molecular target: T1, Exportin-1; experiment: Inhibition of CRM1 nuclear export in human HeLa cells assessed as CRM1 depletion at 10 uM measured after 6 hrs; assay type: cell-based
# [3] = molecular target: T1, Exportin-1; experiment: Inhibition of CRM1 (unknown origin) assessed as binding of GST-tagged NES peptide
# [4] = molecular target: T1, Exportin-1; experiment: Inhibition of CRM1 nuclear export in human HeLa cells assessed as CRM1 depletion at 1 uM measured after 6 hrs; assay type: cell-based
# [5] = molecular target: T1, Exportin-1; experiment: Inhibition of CRM1 nuclear export in human HeLa cells assessed as CRM1 depletion at 50 uM measured after 6 hrs; assay type: cell-based
# [6] = system: HCT-116; experiment: Induction of apoptosis in human HCT-116 cells assessed as increase in cleaved PARP-1 level by Western blot analysis; assay type: functional, cell-based
# [7] = system: RKO; experiment: Induction of apoptosis in human RKO cells assessed as late apoptotic at 0.5 uM measured after 24 hrs by AnnexinV-FITC/propidium iodide staining based flow cytometric analysis (reference value: 4.70%); assay type: functional
# [8] = molecular target: T1, Exportin-1; experiment: Inhibition of CRM1-mediated nuclear export in human HeLa cells expressing mCherry-tagged NES reporter incubated for 3 hrs by confocal microscopy analysis; assay type: cell-based; settings: for inhibition: dose 0.09-3 µM
# [9] = molecular target: T1, Exportin-1; experiment: Inhibition of CRM1 nuclear export in human HeLa cells assessed as CRM1 depletion measured after 6 hrs; assay type: cell-based; settings: for inhibition: dose 0.1-9 µM
# [10] = system: Exportin-1 (Homo sapiens), O14980 [C528S]; experiment: Inhibition of CRM1 C528S mutant-mediated nuclear export in human HeLa cells expressing mCherry-tagged NES reporter at 1 uM incubated for 3 hrs by confocal microscopy analysis; assay type: cell-based
# [11] = system: HCT-116; experiment: Cytotoxicity against SiRNA mediated CRM1 knockdown human HCT-116 cells assessed as reduction in cell viability at 0.3 to 1 uM incubated for 72 hrs by CCK-8 assay; assay type: functional, cell-based; settings: dose 0.3-1 µM
# [12] = system: HCT-116; experiment: Induction of apoptosis in human HCT-116 cells assessed as viable cells at 1 uM measured after 24 hrs by AnnexinV-FITC/propidium iodide staining based flow cytometric analysis (reference value: 89.32%); assay type: functional; settings: read-out: Activity
# [13] = system: RKO; experiment: Cytotoxicity against SiRNA mediated CRM1 knockdown human RKO cells assessed as reduction in cell viability at 0.3 to 1 uM incubated for 72 hrs by CCK-8 assay; assay type: functional, cell-based; settings: dose 0.3-1 µM
# [14] = system: HCT-116; experiment: Inhibition of colony formation in human HCT-116 cells assessed as decrease in colonies upto 0.5 uM incubated for 72 hrs by crystal violet staining based assay; assay type: functional, cell-based
# [15] = system: RKO; experiment: Induction of apoptosis in human RKO cells assessed as necrotic at 1 uM measured after 24 hrs by AnnexinV-FITC/propidium iodide staining based flow cytometric analysis (reference value: 1%); assay type: functional
# [16] = molecular target: T1, Exportin-1; experiment: Inhibition of CRM1-mediated nuclear export in human HCT-116 cells assessed as inhibition of nuclear export of cargoes at 1 uM; assay type: cell-based
# [17] = molecular target: T1, Exportin-1; experiment: Binding affinity to CRM1 in human HCT-116 cells assessed as thermal stabilization at 50 uM at 50 to 68 degreeC incubated for 3 mins by […] analysis; assay type: cell-based
# [18] = system: RKO; experiment: Induction of apoptosis in human RKO cells assessed as early apoptotic at 0.5 uM measured after 24 hrs by AnnexinV-FITC/propidium iodide staining based flow cytometric analysis (reference value: 1.79%); assay type: functional
# [19] = system: HeLa; experiment: Downregulation of CRM1 expression in human HeLa cells at 9 uM incubated for 6 hrs by Western blot analysis; assay type: functional, cell-based
# [20] = molecular target: T1, Exportin-1; experiment: Non-covalent inhibition of CRM1 (unknown origin) assessed as reversal of GST-tagged NES peptide binding
# [21] = system: RKO; experiment: Induction of apoptosis in human RKO cells assessed as necrotic at 0.5 uM measured after 24 hrs by AnnexinV-FITC/propidium iodide staining based flow cytometric analysis (reference value: 1%); assay type: functional
# [22] = system: HCT-116; experiment: Induction of apoptosis in human HCT-116 cells assessed as early apoptotic at 0.5 uM measured after 24 hrs by AnnexinV-FITC/propidium iodide staining based flow cytometric analysis (reference value: 3.55%); assay type: functional
# [23] = system: RKO; experiment: Induction of apoptosis in human RKO cells assessed as increase in cleaved PARP-1 level by Western blot analysis; assay type: functional, cell-based
# [24] = system: HeLa; experiment: Downregulation of CRM1 mRNA expression in human HeLa cells at 9 uM incubated for 6 hrs; assay type: functional, cell-based
# [25] = system: Exportin-1 (Homo sapiens), O14980 [C528S]; experiment: Inhibition of CRM1 C528S mutant-mediated nuclear export in human HCT-116 cells assessed as inhibition of nuclear export of cargoes at 1 uM; assay type: cell-based
# [26] = system: HCT-116; experiment: Induction of apoptosis in human HCT-116 cells assessed as necrotic at 1 uM measured after 24 hrs by AnnexinV-FITC/propidium iodide staining based flow cytometric analysis (reference value: 2.22%); assay type: functional
# [27] = system: RKO; experiment: Induction of apoptosis in human RKO cells assessed as late apoptotic at 1 uM measured after 24 hrs by AnnexinV-FITC/propidium iodide staining based flow cytometric analysis (reference value: 4.70%); assay type: functional
# [28] = system: RKO; experiment: Induction of apoptosis in human RKO cells assessed as early apoptotic at 1 uM measured after 24 hrs by AnnexinV-FITC/propidium iodide staining based flow cytometric analysis (reference value: 1.79%); assay type: functional
# [29] = system: RKO; experiment: Cytotoxicity against human RKO cells assessed as reduction in cell viability incubated for 72 hrs by CCK-8 assay; assay type: functional, cell-based
# [30] = system: HCT-116; experiment: Cytotoxicity against human HCT-116 cells assessed as reduction in cell viability incubated for 72 hrs by CCK-8 assay; assay type: functional, cell-based; settings: HCT-116, 72 h
# [31] = system: RKO; experiment: Induction of apoptosis in human RKO cells assessed as viable cells at 0.5 uM measured after 24 hrs by AnnexinV-FITC/propidium iodide staining based flow cytometric analysis (reference value: 92.51%); assay type: functional; settings: read-out: Activity
# [32] = system: HCT-116; experiment: Induction of apoptosis in human HCT-116 cells assessed as necrotic at 0.5 uM measured after 24 hrs by AnnexinV-FITC/propidium iodide staining based flow cytometric analysis (reference value: 2.22%); assay type: functional
# [33] = system: RKO; experiment: Inhibition of colony formation in human RKO cells assessed as decrease in colonies upto 0.5 uM incubated for 72 hrs by crystal violet staining based assay; assay type: functional, cell-based
# [34] = system: HCT-116; experiment: Induction of apoptosis in human HCT-116 cells assessed as late apoptotic at 0.5 uM measured after 24 hrs by AnnexinV-FITC/propidium iodide staining based flow cytometric analysis (reference value: 4.91%); assay type: functional
# [35] = system: HCT-116; experiment: Induction of apoptosis in human HCT-116 cells assessed as early apoptotic at 1 uM measured after 24 hrs by AnnexinV-FITC/propidium iodide staining based flow cytometric analysis (reference value: 3.55%); assay type: functional
# [36] = system: HCT-116; experiment: Induction of apoptosis in human HCT-116 cells assessed as late apoptotic at 1 uM measured after 24 hrs by AnnexinV-FITC/propidium iodide staining based flow cytometric analysis (reference value: 4.91%); assay type: functional
# [37] = system: HCT-116; experiment: Induction of apoptosis in human HCT-116 cells assessed as viable cells at 0.5 uM measured after 24 hrs by AnnexinV-FITC/propidium iodide staining based flow cytometric analysis (reference value: 89.32%); assay type: functional; settings: read-out: Activity
# [38] = system: RKO; experiment: Induction of apoptosis in human RKO cells assessed as viable cells at 1 uM measured after 24 hrs by AnnexinV-FITC/propidium iodide staining based flow cytometric analysis (reference value: 92.51%); assay type: functional; settings: read-out: Activity
# [39] = molecular target: T1, Exportin-1; experiment: Inhibition of CRM1-mediated nuclear export in human HeLa cells expressing mCherry-tagged NES reporter at 1 uM incubated for 3 hrs by confocal microscopy analysis; assay type: cell-based
# [40] = molecular target: T1, Exportin-1; experiment: Non-covalent inhibition of CRM1 (unknown origin) assessed as reversal of GST-tagged NES peptide binding pretreated with CRM1 followed by compound addition and measured after 2 hrs
# T1 sequence (O14980 whole entry): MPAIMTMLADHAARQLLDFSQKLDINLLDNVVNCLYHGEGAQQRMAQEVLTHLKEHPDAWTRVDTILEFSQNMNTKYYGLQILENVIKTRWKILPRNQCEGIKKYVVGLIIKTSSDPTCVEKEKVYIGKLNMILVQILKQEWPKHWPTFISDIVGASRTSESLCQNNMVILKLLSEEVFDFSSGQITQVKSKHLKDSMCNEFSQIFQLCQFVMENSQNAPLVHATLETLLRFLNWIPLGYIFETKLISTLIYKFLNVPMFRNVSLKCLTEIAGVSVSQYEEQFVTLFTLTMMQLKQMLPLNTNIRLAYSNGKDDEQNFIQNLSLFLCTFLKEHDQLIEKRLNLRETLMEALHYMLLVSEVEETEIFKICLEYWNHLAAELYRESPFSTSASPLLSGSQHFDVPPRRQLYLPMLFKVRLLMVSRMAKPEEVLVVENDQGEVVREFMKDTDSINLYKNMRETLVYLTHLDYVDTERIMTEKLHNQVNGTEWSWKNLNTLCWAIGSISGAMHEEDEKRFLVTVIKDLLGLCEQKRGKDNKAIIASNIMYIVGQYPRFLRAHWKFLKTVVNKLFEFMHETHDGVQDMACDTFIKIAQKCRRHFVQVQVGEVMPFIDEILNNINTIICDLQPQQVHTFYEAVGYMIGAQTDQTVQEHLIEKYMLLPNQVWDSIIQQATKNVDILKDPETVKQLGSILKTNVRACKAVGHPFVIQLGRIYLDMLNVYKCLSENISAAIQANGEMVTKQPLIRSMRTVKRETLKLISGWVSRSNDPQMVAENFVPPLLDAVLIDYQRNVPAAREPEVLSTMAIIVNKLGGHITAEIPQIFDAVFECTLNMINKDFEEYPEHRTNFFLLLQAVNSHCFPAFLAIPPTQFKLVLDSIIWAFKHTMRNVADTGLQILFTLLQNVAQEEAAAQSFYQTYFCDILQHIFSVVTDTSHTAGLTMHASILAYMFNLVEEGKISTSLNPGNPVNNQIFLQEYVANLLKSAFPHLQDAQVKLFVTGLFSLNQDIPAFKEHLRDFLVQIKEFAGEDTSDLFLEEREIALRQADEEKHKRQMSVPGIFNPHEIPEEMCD
# Chain of Exportin-1 (Homo sapiens), O14980 [C528S] (O14980 whole entry C528S): as the sequence (O14980 whole entry) above, with C528S counted along it
smiles,measurement,setting,value
C/C=C/[C@@H]1O[C@H]([C@H](N)/C=C/C=C(\C)C[C@@H](C)/C=C(C)\C=C\[C@H](O)C[C@H](N)CC(=O)O)C[C@H](O)[C@@H]1C,Kd,[1],5900 nM
CCN(CC)CCCC(C)Nc1ccnc2cc(Cl)ccc12 (configuration not stated),inhibition,[2],Active
C/C=C/[C@@H]1O[C@H]([C@@H](N)/C=C/C=C(\C)C[C@@H](C)/C=C(C)\C=C\[C@H](O)C[C@@H](CC(=O)NCCO)NCCO)C[C@H](O)[C@@H]1C,inhibition,[3],inactive
same,inhibition,[4],inactive
CC(C)C[C@@H](C=O)NC(=O)[C@H](CC(C)C)NC(=O)[C@H](CC(C)C)NC(=O)OCc1ccccc1 (Cbz-Leu-Leu-Leu-aldehyde),inhibition,[5],Active
C/C=C/[C@@H]1O[C@H]([C@H](N)/C=C/C=C(\C)C[C@@H](C)/C=C(C)\C=C\[C@H](O)C[C@H](N)CC(=O)OC)C[C@H](O)[C@@H]1C,Activity,[6],Active
same,inhibition,[3],Active
same,Activity,[7],11.78%
same,IC50,[8],280 nM
same,inhibition,[8],Dose-Dependent Effect
same,IC50,[9],270 nM
same,inhibition,[9],Active
same,inhibition,[10],Active
same,Activity,[11],Active
same,viability at 1 µM,[12],62.4%
same,Activity,[13],Active
same,inhibition,[14],Active
same,Activity,[15],7.93%
same,inhibition,[16],Active
same,Activity,[17],Active
same,Activity,[18],3.34%
same,Activity,[19],inactive
same,inhibition,[20],Active
same,Activity,[21],6.09%
same,Activity,[22],5.73%
same,Activity,[23],Active
same,Activity,[24],inactive
same,inhibition,[25],inactive
same,Activity,[26],8.17%
same,Activity,[27],18.43%
same,Activity,[28],2.78%
same,IC50,[29],190 nM
same,IC50,[30],120 nM
same,viability at 0.5 µM,[31],78.8%
same,Activity,[32],3.75%
same,inhibition,[33],Active
same,Activity,[34],12.47%
same,Kd,[1],4600 nM
same,Activity,[35],4.32%
same,Activity,[36],25.08%
same,viability at 0.5 µM,[37],78%
same,viability at 1 µM,[38],70.9%
C/C=C/[C@@H]1O[C@H]([C@@H](N)/C=C/C=C(\C)C[C@@H](C)/C=C(C)\C=C\[C@H](O)C[C@H](N)CC(N)=O)C[C@H](O)[C@@H]1C,inhibition,[3],inactive
same,inhibition,[4],inactive
same,inhibition,[39],inactive
O=C(/C=C\n1cnc(-c2cc(C(F)(F)F)cc(C(F)(F)F)c2)n1)NNc1cnccn1,inhibition,[4],inactive
C/C=C/[C@@H]1O[C@H]([C@@H](N)/C=C/C=C(\C)C[C@@H](C)/C=C(C)\C=C\[C@H](O)C[C@H](N)CC(=O)OC)C[C@H](O)[C@@H]1C,inhibition,[3],Active
same,IC50,[8],340 nM
same,inhibition,[8],Dose-Dependent Effect
same,IC50,[9],550 nM
same,inhibition,[9],Active
same,inhibition,[10],Active
same,inhibition,[40],Active
same,Activity,[11],Active
same,Activity,[13],Active
same,inhibition,[16],Active
same,Activity,[19],inactive
same,inhibition,[20],Active
same,Activity,[24],inactive
same,inhibition,[25],inactive
same,IC50,[29],300 nM
same,IC50,[30],320 nM
